Measured values taken from PubChem BioAssay (NCI).
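Compound exposure: 48 hours, 5 concentrations, 96-well plates. TGI: total growth inhibition.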

Columns and labels:
Assay in all cases: NCI-60 cell line screen, 48 h
[1] = test system: SF-539 CNS
[2] = test system: SK-OV-3 ovarian
[3] = test system: K-562 leukemia
[4] = test system: SF-268 CNS
[5] = test system: PC-3 prostate
[6] = test system: ACHN renal
[7] = test system: DU-145 prostate
[8] = test system: SR leukemia
[9] = test system: NCI-H226 lung
[10] = test system: KM12 colon
[11] = test system: M14 melanoma
[12] = test system: SNB-19 CNS
[13] = test system: HOP-62 NSCLC
[14] = test system: HS 578T breast
[15] = test system: RPMI-8226 leukemia

Cc1cc2c3c(c1)S(=O)(=O)c1cc(Cl)ccc1N3CCC2
TGI [1]: > 100 µM | TGI [2]: > 100 µM | TGI [3]: > 100 µM | TGI [4]: > 100 µM | TGI [5]: > 100 µM | TGI [6]: > 100 µM | TGI [7]: > 100 µM | TGI [8]: > 100 µM | TGI [9]: > 100 µM | TGI [10]: > 100 µM | TGI [11]: > 100 µM | TGI [12]: > 100 µM | TGI [13]: > 100 µM | TGI [14]: > 100 µM

C[C@]12C(=O)OC[C@H](c3ccccc3)N1C(=O)N(Cc1ccccc1)[C@@H]2CO
TGI [1]: > 100 µM | TGI [2]: > 100 µM | TGI [3]: > 100 µM | TGI [4]: > 100 µM | TGI [5]: > 100 µM | TGI [6]: > 100 µM | TGI [7]: > 100 µM | TGI [8]: > 100 µM | TGI [9]: > 100 µM | TGI [10]: > 100 µM | TGI [11]: > 100 µM | TGI [12]: > 100 µM | TGI [13]: > 100 µM | TGI [14]: > 100 µM

COc1cc2c(c3nc4ccccc4nc13)-c1ccc(SC)c(=O)cc1[C@@H](NC(C)=O)CC2
TGI [1]: 0.0603 µM | TGI [2]: > 100 µM | TGI [3]: > 100 µM | TGI [4]: > 100 µM | TGI [5]: > 100 µM | TGI [6]: > 100 µM | TGI [15]: > 100 µM | TGI [7]: 0.838 µM | TGI [8]: > 100 µM | TGI [10]: > 100 µM | TGI [11]: > 100 µM | TGI [12]: > 100 µM | TGI [13]: > 100 µM | TGI [14]: 0.0543 µM

COC(=O)c1sc2nc(Nc3ccccc3)c(=Nc3ccccc3)sc2c1C
TGI [1]: > 100 µM | TGI [2]: > 100 µM | TGI [3]: > 100 µM | TGI [4]: > 100 µM | TGI [5]: > 100 µM | TGI [6]: > 100 µM | TGI [15]: > 100 µM | TGI [7]: > 100 µM | TGI [8]: > 100 µM | TGI [9]: > 100 µM | TGI [10]: > 100 µM | TGI [12]: > 100 µM | TGI [13]: > 100 µM | TGI [14]: > 100 µM

CCN(CC)c1c(-c2c(OC(C)C)c(=O)c2=O)c(=O)n2ccsc2c1OC(C)=O
TGI [2]: > 100 µM | TGI [3]: > 100 µM | TGI [4]: > 100 µM | TGI [5]: > 100 µM | TGI [6]: > 100 µM | TGI [15]: > 100 µM | TGI [7]: > 100 µM | TGI [8]: > 100 µM | TGI [9]: > 100 µM | TGI [10]: > 100 µM | TGI [11]: > 100 µM | TGI [12]: > 100 µM | TGI [13]: > 100 µM | TGI [14]: > 100 µM

O=C1c2cccnc2S(=O)(=O)N1c1ccc(Br)cc1
TGI [2]: > 100 µM | TGI [3]: > 100 µM | TGI [4]: > 100 µM | TGI [5]: > 100 µM | TGI [15]: > 100 µM | TGI [7]: > 100 µM | TGI [8]: > 100 µM | TGI [9]: > 100 µM | TGI [10]: > 100 µM | TGI [11]: > 100 µM | TGI [12]: > 100 µM | TGI [13]: > 100 µM | TGI [14]: > 100 µM

COc1cc(OC)c(-n2[nH]c(=O)n(C)c2=O)c(OC)c1
TGI [1]: > 100 µM | TGI [2]: > 100 µM | TGI [3]: > 100 µM | TGI [4]: > 100 µM | TGI [5]: > 100 µM | TGI [15]: > 100 µM | TGI [7]: > 100 µM | TGI [8]: > 100 µM | TGI [9]: > 100 µM | TGI [10]: > 100 µM | TGI [11]: > 100 µM | TGI [12]: > 100 µM | TGI [14]: > 100 µM

Nc1nc(N)c2cc(-c3cc4ccccc4[nH]3)ccc2n1
TGI [1]: 51.7 µM | TGI [2]: > 100 µM | TGI [4]: 95.5 µM | TGI [5]: > 100 µM | TGI [6]: 33.3 µM | TGI [15]: 32.4 µM | TGI [7]: 58.8 µM | TGI [8]: 60.5 µM | TGI [9]: 93.7 µM | TGI [10]: 43.5 µM | TGI [11]: 34.4 µM | TGI [12]: > 100 µM | TGI [13]: > 100 µM | TGI [14]: > 100 µM
